# How the values were obtained:
# HepG2/ADR = experiment: MTT assay; assay type: cell-based, human
# HCT116 cells = experiment: Apoptosis analysis, flow cytometry annexin V-FITC/PI; assay type: cell-based, human; details: 9 μM, 24 h
# Experimental: HCT116 cells (3.0 × 10^5 cells/mL) were grown in culture medium on 6-well plates and incubated in the presence or absence of CYB-L10 (1, 3, and 9 µM) for 24 h. And then, the cells were harvested and washed with cold PBS buffer, resuspended in 1 × binding buffer, and then stained with 5 µL Annexin V-FITC and 5 µL propidium iodide (KeyGEN BioTECH, Nanjing, China) for 15 min in dark. The stained cells were analyzed by using flow cytometry (BD, FACSCalibur, Franklin Lakes, NJ, USA) within 1 h. The experiments were repeated independently for three times.
# To estimate the effect of CYB-L10 on apoptosis, flow cytometry analysis using double staining with annexin V-FITC/PI was carried out for HCT116 cells. […] CYB-L10 induced the major population of HCT116 cells into the late apoptotic stage 47.39% at 9 μM concentration.
# TOP1 = test system: TOP1; set-up: method as in PMID 26188908; details: compared with CPT; cited from earlier work
# TOP2 = experiment: TOP2-mediated relaxation assay; assay type: biochemical; details: 25 μM, relaxation of supercoiled pBR322 DNA
# Experimental: Figure S1. TOP2-mediated relaxation assay. Lane 1, supercoiled pBR322 DNA alone; Lane 2, DNA
# and enzyme; Lanes 3, DNA, enzyme and the positive control etoposide (VP16) at 25 μM; Lanes 4,
# DNA, enzyme and CYB-L10 at 25 μM. R: relaxed DNA. Sc: supercoiled DNA.
# (1 picture or pasted object on this page, not shown here)
# [1] = Pharmacokinetic study in rat; assay type: in vivo; details: male, Sprague-Dawley, plasma, SD rats
# Experimental: Blood samples (200 µL) were collected into heparinized tubes via the jugular vein at the following times: 0.083, 0.25, 0.5, 1, 2, 5, 7, and 24 h after dosing. Plasma samples (100 µL) were obtained after centrifugation for 10 min at 3000 rpm and stored at −20 °C until used for analysis. The plasma was detected through LC-MS/MS.
# The in vivo pharmacokinetic (PK) study of CYB-L10 was conducted in SD rats. The SD rats were divided into two groups (n = 2) and treated by i.v. injection at 1 mg/kg dose and i.g. at 5 mg/kg dose, respectively. The plasma samples were collected up to 24 h postdose and measured for the concentration of CYB-L10. By i.v. administration, the AUC0→∞ was 241 ± 40 h·ng/mL, and T1/2 was 18.4 ± 5.12 h.
# DU-145 = experiment: MTT assay; assay type: cell-based; details: Homo sapiens; Parental cell line DU-145, MTT, 72 h
# HL-60 (TB) = experiment: NCI60 assay; assay type: cell-based; details: Homo sapiens, Leukemia, 48 h
# Experimental: The NCI60 (National Cancer Institute 60) tumor cell drug discovery panel was developed as a tool to assess the anticancer activity of compounds against a range of cell lines derived from nine cancer cell types, including hematological malignancies, lung, central nervous system, melanoma, colorectal, renal, breast, ovarian, and prostate[18]^,[23]^,[24]. CYB-L10 was tested using the protocols by the NCI, which has been described previously. […] The overall antiproliferative potential is quantified as a mean-graph midpoint (MGM).
# It was selected and submitted to National Cancer Institute (NCI, USA) for a developmental therapeutics assay against the 60 clinical tumor cell lines representing nine tissue types (NCI60)[23–25]. The tumor cells were incubated with CYB-L10 for 48 h and stained with sulphorhodamine B dye. Cell growth inhibition (GI50) was calculated relative to the control without compound.
smiles,measurement,setting,value
O=C1c2cccnc2C(=O)c2c1c(C(=O)OCCN1CCOCC1)c1ccccn21 [CYB-L10],Resistance ratio,HepG2/ADR; GI50 HepG2/ADR / GI50 HepG2,11.4
same,GI50,"HepG2/ADR; Homo sapiens, Resistant subline HepG2/ADR, MTT, 72 h",740 ± 240 nM
same,A2 quadrant cells (late apoptotic stage),HCT116 cells,47.39%
same,TOP1 inhibition,TOP1,higher TOP1 inhibition than CPT
same,inhibition against TOP2,TOP2,very weak inhibition
same,AUC(0-inf),"[1]; iv, i.v. 1 mg/kg",241 ± 40 ng·h/mL
same,half-life,"[1]; iv, i.v. 1 mg/kg",18.4 ± 5.12 h
same,bioavailability,"[1]; oral, i.g. 5 mg/kg vs i.v. 1 mg/kg, read-out: F (bioavailability)",6.3%
same,AUC(0-inf),"[1]; po, i.g. 5 mg/kg",76 ± 16.5 ng·h/mL
same,Cmax,"[1]; po, i.g. 5 mg/kg",24.7 ± 6.59 ng/mL
same,Tmax,"[1]; po, i.g. 5 mg/kg",0.46 ± 0.1 h
same,half-life,"[1]; po, i.g. 5 mg/kg",18.4 ± 7.77 h
same,GI50,DU-145,16 ± 10 nM
same,GI50,HL-60 (TB),240 nM
